Measurements reported in publication PMC9607599, “Dual Targeting Ligands—Histamine H3 Receptor Ligands with Monoamine Oxidase B Inhibitory Activity—In Vitro and In Vivo Evaluation” (Pharmaceutics, 2022).
Values joined by “and” are separate entries in the source; they are usually repeats but may differ in a detail not shown here. Equal values may be shown once. Where a name gives a salt, the structure may show the parent alone.

Legend:
[1] = molecular target: human histamine H3 receptor (hH3R) (Homo sapiens, UniProt Q9Y5N1); test: [3H]Nα-methylhistamine radioligand binding assay in CHO-K1 cells stably expressing hH3R; design: expressed in transfected cells; host or cells: CHO-K1; conditions: for inhibition at 1 µM: two independent experiments, read-out: hH3R % Inh. (radioligand inhibition); for Ki: CHO-K1 cells, [3H]Nα-methylhistamine, mean ± SEM of three independent experiments, read-out: hH3R Ki [nM] ± SEM
Protocol: Affinity to hH3R stably expressed in CHO-K1 [6] or HEK293 [11] cells was evaluated in a radioligand binding assay as described previously. Briefly, 10 mM stock solutions of the test compounds in DMSO were prepared. Each compound was tested at eight concentrations ranging from 10^−5 to 10^−12 M (final concentration). All assays were carried out in duplicate. […] The radioactivity was counted in MicroBeta 2 [6] or MicroBeta Trilux counter (PerkinElmer). Data were fitted to a one-site curve-fitting equation with Prism 6 (GraphPad Software, San Diego, CA, USA) and Ki values were calculated from IC50 values (from at least three experiments performed in duplicates) according to the Cheng−Prusoff equation [12].
Affinity for hH3R was evaluated in a radioligand binding assay using [^3H]N^α-methylhistamine as radioligand in CHO K1 or HEK293 cells stably expressing hH3R as described previously. […] Then, those with at least 50% inhibition for hH3R were selected for further testing (Ki evaluation). […] Compounds were tested in the binding assay in HEK293 cells.

human MAO B (hMAO B) = molecular target: T1, human MAO B (hMAO B) (Homo sapiens, UniProt P27338); test: fluorometric MAO assay (p-tyramine substrate); assay type: biochemical; conditions: for IC50: fluorometric MAO assay, mean ± SEM of 2–4 independent experiments; for inhibition at 1 µM: mean of two independent experiments, read-out: hMAO B % of Inh.
T1 sequence (P27338 1-520): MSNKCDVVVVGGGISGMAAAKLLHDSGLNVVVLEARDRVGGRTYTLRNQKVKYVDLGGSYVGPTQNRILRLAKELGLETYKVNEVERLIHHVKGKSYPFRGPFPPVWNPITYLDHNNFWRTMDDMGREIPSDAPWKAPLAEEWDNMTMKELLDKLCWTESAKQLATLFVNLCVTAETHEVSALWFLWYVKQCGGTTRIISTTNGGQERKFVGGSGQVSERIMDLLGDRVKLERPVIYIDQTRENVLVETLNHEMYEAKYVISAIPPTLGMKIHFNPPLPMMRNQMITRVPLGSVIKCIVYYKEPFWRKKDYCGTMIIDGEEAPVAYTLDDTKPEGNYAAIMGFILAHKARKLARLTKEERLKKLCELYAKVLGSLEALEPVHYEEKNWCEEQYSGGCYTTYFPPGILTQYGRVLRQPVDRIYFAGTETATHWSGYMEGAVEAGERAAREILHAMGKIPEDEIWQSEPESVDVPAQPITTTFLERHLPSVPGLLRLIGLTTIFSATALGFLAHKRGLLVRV
Protocol: The precise method was described in [6]. First, compounds 4–32 were screened for hMAO B inhibitory activity at 1 μM concentration by the fluorometric method. Para-tyramine (200 μM) was used as a substrate for the enzyme and safinamide (1 μM) was used as a reference compound. […] Each experiment was performed in duplicate.
All compounds were first screened for hMAO B inhibitory activity at the concentration of 1 μM. […] Based on the results, we selected compounds 9 and 13 for further analysis.

Sequence of human histamine H3 receptor (hH3R) (Q9Y5N1 whole entry): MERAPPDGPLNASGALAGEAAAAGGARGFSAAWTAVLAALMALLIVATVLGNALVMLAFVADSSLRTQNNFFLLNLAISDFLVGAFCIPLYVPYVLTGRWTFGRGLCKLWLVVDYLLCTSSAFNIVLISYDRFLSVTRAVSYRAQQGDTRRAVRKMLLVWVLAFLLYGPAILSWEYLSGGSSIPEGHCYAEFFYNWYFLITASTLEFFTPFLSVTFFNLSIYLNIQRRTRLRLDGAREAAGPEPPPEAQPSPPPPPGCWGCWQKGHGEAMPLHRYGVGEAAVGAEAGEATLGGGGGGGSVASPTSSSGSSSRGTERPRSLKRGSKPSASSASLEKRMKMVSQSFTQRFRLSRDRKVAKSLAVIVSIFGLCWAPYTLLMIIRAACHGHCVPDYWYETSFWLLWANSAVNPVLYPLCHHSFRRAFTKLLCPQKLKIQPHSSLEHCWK

| Compound | inhibition at 1 µM ([1]; CHO K1 cells) | IC50 (human MAO B (hMAO B)) | Ki [1] | also measured |
| --- | --- | --- | --- | --- |
| CCN(CC)CCCOc1ccc(C(C)(C)C)cc1.O=C(O)C(=O)O (hydrate or solvate) [Compound 7, 3-(4-(tert-Butyl)phenoxy)-N,N-diethylpropan-1-amine hydrogen oxalate] | – | – | – | melting point: 105 to 108 °C |
| CC1CCCC(C)N1CCCOc1ccc(C(C)(C)C)cc1.Cl (centres unmarked) (hydrate or solvate) [Compound 11, 1-(3-(4-(tert-Butyl)phenoxy)propyl)-2,6-dimethylpiperidine hydrogen chloride] | – | – | – | melting point: 194 to 196 °C (dec.) |
| CN(C)CCCOc1ccc(C(C)(C)C)cc1 [Compound 4, 3-(4-(tert-Butyl)phenoxy)-N,N-dimethylpropan-1-amine hydrogen oxalate] | 24% | 19 ± 2 nM | – | – |
| CCN(C)CCCOc1ccc(C(C)(C)C)cc1 [Compound 5, 3-(4-(tert-Butyl)phenoxy)-N-ethyl-N-methylpropan-1-amine hydrogen oxalate] | – | 9 nM | 484 ± 15 nM | – |
| CC(C)N(C)CCCOc1ccc(C(C)(C)C)cc1 [Compound 6, 3-(4-(tert-Butyl)phenoxy)-N-isopropyl-N-methylpropan-1-amine hydrogen oxalate] | – | 6 ± 1 nM | 900 ± 75 nM | – |
| CCN(CC)CCCOc1ccc(C(C)(C)C)cc1 [Compound 7, 3-(4-(tert-Butyl)phenoxy)-N,N-diethylpropan-1-amine hydrogen oxalate] | 32% | 15 ± 4 nM | – | – |
| CC(C)N(CCCOc1ccc(C(C)(C)C)cc1)C(C)C [Compound 8, 3-(4-(tert-Butyl)phenoxy)-N,N-diisopropylpropan-1-amine hydrogen chloride] | 8% | 37 ± 6 nM | – | – |
| CC1CCCC(C)N1CCCOc1ccc(C(C)(C)C)cc1 (centres unmarked) [Compound 11, 1-(3-(4-(tert-Butyl)phenoxy)propyl)-2,6-dimethylpiperidine hydrogen chloride] | – | 9 ± 1 nM | < 100 nM and 97 nM | – |
| CN1CCN(CCCOc2ccc(C(C)(C)C)cc2)CC1.O=C(O)C(=O)O [Compound 15, 1-(3-(4-(tert-Butyl)phenoxy)propyl)-4-methylpiperazine hydrogen oxalate] | 0% | 665 ± 118 nM | – | hH3R activity in words ([1]; CHO K1 cells): no activity at all |
| CC(C)(C)c1ccccc1OCCCN1CCCCC1 [Compound 24, 1-(3-(2-(tert-Butyl)phenoxy)propyl)piperidine hydrogen oxalate] | 13% | – | > 1000 nM | inhibition at 1 µM (human MAO B (hMAO B)): 4% |
| CC(C)(C)c1cccc(OCCCN2CCCCC2)c1 [Compound 25, 1-(3-(3-(tert-Butyl)phenoxy)propyl)piperidine hydrogen chloride] | – | 1020 ± 69 nM | 340 ± 23 nM | – |
| Cc1ccc(C(C)(C)C)c(OCCCN2CCCCC2)c1 [Compound 27, 1-(3-(2-(tert-Butyl)-5-methylphenoxy)propyl)piperidine hydrogen oxalate] | 0% | – | > 1000 nM | inhibition at 1 µM (human MAO B (hMAO B)): 4% |
| CC(C)(C)c1ccc(NC(=O)OCCCN2CCCCC2)cc1 [Compound 29, 3-(Piperidin-1-yl)propyl (4-(tert-butyl)phenyl)carbamate hydrogen oxalate] | 32% | 2320 ± 436 nM | > 1000 nM | – |
| CC(C)(C)NC(=O)OCCCN1CCCCC1 [Compound 30, 3-(Piperidin-1-yl)propyl tert-butylcarbamate hydrogen oxalate] | 15% | – | – | inhibition at 1 µM (human MAO B (hMAO B)): 47% |
| CC(C)(C)CC(C)(C)NC(=O)OCCCN1CCCCC1 [Compound 31, 3-(Piperidin-1-yl)propyl (2,4,4-trimethylpentan-2-yl)carbamate hydrogen oxalate] | 19% | – | – | inhibition at 1 µM (human MAO B (hMAO B)): 41% |
| CC(C)(C)CCNC(=O)OCCCN1CCCCC1 [Compound 32, 3-(Piperidin-1-yl)propyl (3,3-dimethylbutyl)carbamate hydrogen oxalate] | 20% | 925 ± 29 nM | – | – |
| CC(C)(C)c1ccc(OCCCN2CCCCC2)cc1 [DL76, 1-(3-(4-tert-butylphenoxy)propyl)piperidine, reference compound] | – | – | 57 nM and 57.5 nM | – |
